Measurements from patent US12685726B2, “Sulfoximines as inhibitors of NaV1.8” (Gruenenthal GmbH, priority 2022, dated 2026).

Target: T1, human NaV 1.8 (Homo sapiens, UniProt Q9Y5Y9)
T1 construct: expressed in transfected cells; host or cells: HEK (recombinant cell line)
Experiment: Automated whole-cell patch clamp (Qube384) voltage-clamp recordings of sodium currents in HEK-NaV1.8 cell line
Assay type: cell-based
Conditions: read-out: Potency category (human NaV 1.8 IC50)
Summary of the method: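 HEK cells expressing NaV1.8 with b3, whole-cell automated voltage clamp at room temperature or 19° C.; CsF-based internal, pH 7.4 external. State-dependent (−120 mV, V1/2 4 s, −10 mV test pulses) and 10/20 Hz 40-pulse protocols; ~12 min compound, vehicle-corrected, IC50 by 4-parameter logistic fit.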

T1 sequence (Q9Y5Y9 whole entry): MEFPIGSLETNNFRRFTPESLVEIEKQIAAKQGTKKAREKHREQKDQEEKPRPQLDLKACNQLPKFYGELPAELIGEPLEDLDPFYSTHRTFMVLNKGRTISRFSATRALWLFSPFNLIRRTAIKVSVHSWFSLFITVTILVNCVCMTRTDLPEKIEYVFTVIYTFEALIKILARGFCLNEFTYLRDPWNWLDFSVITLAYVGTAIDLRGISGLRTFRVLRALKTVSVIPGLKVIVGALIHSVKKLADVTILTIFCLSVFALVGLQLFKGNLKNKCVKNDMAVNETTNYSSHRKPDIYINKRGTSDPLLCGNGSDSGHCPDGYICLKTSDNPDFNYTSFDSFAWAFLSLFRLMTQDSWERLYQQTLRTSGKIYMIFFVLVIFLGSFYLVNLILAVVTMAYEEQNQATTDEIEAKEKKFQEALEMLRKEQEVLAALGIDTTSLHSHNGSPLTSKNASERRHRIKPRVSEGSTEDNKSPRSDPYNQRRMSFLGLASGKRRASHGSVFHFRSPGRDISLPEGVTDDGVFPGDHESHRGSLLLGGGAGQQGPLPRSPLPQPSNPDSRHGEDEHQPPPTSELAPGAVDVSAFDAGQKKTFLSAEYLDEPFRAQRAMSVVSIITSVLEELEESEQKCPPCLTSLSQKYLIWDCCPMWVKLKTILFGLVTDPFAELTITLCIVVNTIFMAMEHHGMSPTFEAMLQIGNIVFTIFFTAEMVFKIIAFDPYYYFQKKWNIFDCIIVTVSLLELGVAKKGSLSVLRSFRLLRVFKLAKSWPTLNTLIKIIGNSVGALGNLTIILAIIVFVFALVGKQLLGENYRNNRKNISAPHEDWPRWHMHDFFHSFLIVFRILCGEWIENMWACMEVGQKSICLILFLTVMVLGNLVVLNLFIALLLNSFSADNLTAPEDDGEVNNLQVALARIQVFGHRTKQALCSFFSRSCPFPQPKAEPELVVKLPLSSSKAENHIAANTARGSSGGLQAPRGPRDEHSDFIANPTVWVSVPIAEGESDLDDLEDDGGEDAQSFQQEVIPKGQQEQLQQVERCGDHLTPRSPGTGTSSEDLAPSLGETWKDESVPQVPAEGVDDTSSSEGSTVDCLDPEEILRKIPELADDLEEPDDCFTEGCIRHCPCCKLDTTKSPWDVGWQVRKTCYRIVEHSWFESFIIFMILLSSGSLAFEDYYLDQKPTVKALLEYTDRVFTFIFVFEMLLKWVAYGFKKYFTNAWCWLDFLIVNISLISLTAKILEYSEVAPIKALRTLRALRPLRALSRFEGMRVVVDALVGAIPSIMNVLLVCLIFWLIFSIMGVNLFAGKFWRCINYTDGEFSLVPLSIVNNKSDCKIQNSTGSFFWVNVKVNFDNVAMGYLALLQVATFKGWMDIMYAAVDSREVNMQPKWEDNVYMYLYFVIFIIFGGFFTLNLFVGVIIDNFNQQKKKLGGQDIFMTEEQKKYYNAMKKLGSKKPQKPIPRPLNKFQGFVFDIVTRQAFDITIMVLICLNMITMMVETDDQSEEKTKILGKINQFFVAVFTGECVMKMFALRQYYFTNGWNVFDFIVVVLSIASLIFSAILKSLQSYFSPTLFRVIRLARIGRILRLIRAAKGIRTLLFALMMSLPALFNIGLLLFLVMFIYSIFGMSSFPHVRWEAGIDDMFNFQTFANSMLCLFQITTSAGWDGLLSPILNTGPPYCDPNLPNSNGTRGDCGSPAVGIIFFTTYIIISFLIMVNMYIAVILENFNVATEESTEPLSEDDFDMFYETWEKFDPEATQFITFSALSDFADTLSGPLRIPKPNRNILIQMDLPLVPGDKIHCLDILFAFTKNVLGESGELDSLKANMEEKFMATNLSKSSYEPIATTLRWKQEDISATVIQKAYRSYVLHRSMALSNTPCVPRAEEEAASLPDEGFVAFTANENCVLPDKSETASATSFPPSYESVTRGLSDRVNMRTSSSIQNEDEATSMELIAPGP

Compound | IC50 [nM]
COC1(c2nn(CC3(C)CC(F)(F)C3)c(C(=O)Nc3ccnc(S(C)(=N)=O)c3)c2C(F)(F)F)CC1 (single isomer, unassigned) [Example 71a, 1-((3,3-difluoro-1-methylcyclobutyl)methyl)-3-(1-methoxycyclopropyl)-N-(2-(S-methylsulfonimidoyl)pyridin-4-yl)-4-(trifluoromethyl)-1H-pyrazole-5-carboxamide] | 100 to 1000
C[S@@](=N)(=O)c1cc(NC(=O)c2c(C(F)(F)F)c(C3CC3)nn2C[C@@H]2C(F)(F)C23CC3)ccn1 (single isomer, unassigned) [Example 79c, 3-cyclopropyl-1-((2,2-difluorospiro[2.2]pentan-1-yl)methyl)-N-(2-(S-methylsulfonimidoyl)pyridin-4-yl)-4-(trifluoromethyl)-1H-pyrazole-5-carboxamide] | ≤ 100
Cc1c(C(C)(F)F)nn(CC23CC(C(F)(F)F)(C2)C3)c1C(=O)Nc1ccnc(S(C)(=N)=O)c1 (single isomer, unassigned) [Example 15a, 3-(1,1-difluoroethyl)-4-methyl-N-(2-(S-methylsulfonimidoyl)pyridin-4-yl)-1-((3-(trifluoromethyl)bicyclo[1.1.1]pentan-1-yl)methyl)-1H-pyrazole-5-carboxamide] | ≤ 100
CC(=O)N1CC2(CCC2Cn2nc(C3CC3)c(C(F)(F)F)c2C(=O)Nc2ccnc(S(C)(=N)=O)c2)C1 (single isomer, unassigned) [Example 140a, 1-((2-Acetyl-2-azaspiro[3.3]heptan-5-yl)methyl)-3-cyclopropyl-N-(2-(S-methylsulfonimidoyl)pyridin-4-yl)-4-(trifluoromethyl)-1H-pyrazole-5-carboxamide] | 100 to 1000
CS(=N)(=O)c1cc(NC(=O)c2c(C(F)(F)F)c(OC(F)F)nn2CC2CCC(F)(F)C2)ccn1 (stereo not drawn) [Example 33, 1-((3,3-Difluorocyclopentyl)methyl)-3-(difluoromethoxy)-N-(2-(S-methylsulfonimidoyl)pyridin-4-yl)-4-(trifluoromethyl)-1H-pyrazole-5-carboxamide] | ≤ 100
CC1(Cn2nc(C3(F)CC3)c(C(F)(F)F)c2C(=O)Nc2cccc(S(C)(=O)=NC(=O)C3COC3)c2)CC(F)(F)C1 (single isomer, unassigned) [Example 150a, 1-((3,3-Difluoro-1-methylcyclobutyl)methyl)-3-(1-fluorocyclopropyl)-N-(3-(S-methyl-N-(oxetane-3-carbonyl)sulfonimidoyl)phenyl)-4-(trifluoromethyl)-1H-pyrazole-5-carboxamide] | ≤ 100
CC1(Cn2nc(C3(C)CC3)c(C(F)(F)F)c2C(=O)Nc2ccnc(S(C)(=N)=O)c2)CC(F)(F)C1 (single isomer, unassigned) [Example 69a, 1-((3,3-difluoro-1-methylcyclobutyl)methyl)-3-(1-methylcyclopropyl)-N-(2-(S-methylsulfonimidoyl)pyridin-4-yl)-4-(trifluoromethyl)-1H-pyrazole-5-carboxamide] | ≤ 100
CS(=N)(=O)c1cc(NC(=O)c2c(C(F)(F)F)c(C34CC(C3)C4)nn2CC2C[C@@H]2C(F)F)ccn1 (stereo in doubt) [Example 146, 3-(Bicyclo[1.1.1]pentan-1-yl)-1-(((trans)-2-(difluoromethyl)cyclopropyl)methyl)-N-(2-(S-methylsulfonimidoyl)pyridin-4-yl)-4-(trifluoromethyl)-1H-pyrazole-5-carboxamide] | ≤ 100
CC1(Cn2nc(C3CC3)c(C(F)(F)F)c2C(=O)Nc2ccc(F)c(S(C)(=N)=O)c2)CC(F)(F)C1 (single isomer, unassigned) [Example 132a, 3-Cyclopropyl-1-((3,3-difluoro-1-methylcyclobutyl)methyl)-N-(4-fluoro-3-(S-methylsulfonimidoyl)phenyl)-4-(trifluoromethyl)-1H-pyrazole-5-carboxamide] | ≤ 100
CS(=N)(=O)c1cc(NC(=O)c2c(C(F)(F)F)c(C3CC3)nn2C[C@H]2CCC(F)(F)C2)ccn1 (single isomer, unassigned) [Example 17a] | ≤ 100
CC1(Cn2nc(C3(F)CC3)c(C(F)(F)F)c2C(=O)Nc2cccc([S@@](C)(=O)=NC(=O)CO)c2)CC(F)(F)C1 [Example 151a] | ≤ 100
CS(=N)(=O)c1cccc(NC(=O)c2c(C(F)(F)F)c(C34CC(C3)C4)nn2CC2C[C@@H]2C(F)F)c1 (stereo in doubt) [Example 139, 3-(Bicyclo[1.1.1]pentan-1-yl)-1-(((trans)-2-(difluoromethyl)cyclopropyl)methyl)-N-(3-(S-methylsulfonimidoyl)phenyl)-4-(trifluoromethyl)-1H-pyrazole-5-carboxamide] | ≤ 100
CC1(Cn2nc(C34CC(F)(C3)C4)c(C(F)F)c2C(=O)Nc2cccc(S(C)(=N)=O)c2)CC(F)(F)C1 (single isomer, unassigned) [Example 113a, 1-((3,3-Difluoro-1-methylcyclobutyl)methyl)-4-(difluoromethyl)-3-(3-fluorobicyclo[1.1.1]pentan-1-yl)-N-(3-(S-methylsulfonimidoyl)phenyl)-1H-pyrazole-5-carboxamide] | ≤ 100
CS(=N)(=O)c1cc(NC(=O)c2c(C(F)(F)F)c(C3CC3)nn2CC2CCC23CNC3)ccn1 (single isomer, unassigned) [Example 153c, 1-((2-Azaspiro[3.3]heptan-5-yl)methyl)-3-cyclopropyl-N-(2-(S-methylsulfonimidoyl)pyridin-4-yl)-4-(trifluoromethyl)-1H-pyrazole-5-carboxamide] | 1000 to 10000
CCS(=N)(=O)c1cc(NC(=O)c2c(C(F)(F)F)c(C3CC3)nn2CC2(C)CC(F)(F)C2)ccn1 (single isomer, unassigned) [Example 48b, 3-cyclopropyl-1-((3,3-difluoro-1-methylcyclobutyl)methyl)-N-(2-(ethylsulfonimidoyl)pyridin-4-yl)-4-(trifluoromethyl)-1H-pyrazole-5-carboxamide] | ≤ 100
CC1(Cn2nc(C3CC3)c(C(F)(F)F)c2C(=O)Nc2cnnc(S(C)(=N)=O)c2)CC(F)(F)C1 (single isomer, unassigned) [Example 47a, 3-cyclopropyl-1-((3,3-difluoro-1-methylcyclobutyl)methyl)-N-(6-(S-methylsulfonimidoyl)pyridazin-4-yl)-4-(trifluoromethyl)-1H-pyrazole-5-carboxamide] | ≤ 100
CC1(Cn2nc(C3(F)CC3)c(C(F)(F)F)c2C(=O)Nc2cccc(S(=N)(=O)C(F)F)c2)CC(F)(F)C1 (single isomer, unassigned) [Example 130b, 1-((3,3-Difluoro-1-methylcyclobutyl)methyl)-N-(3-(S-(difluoromethyl)sulfonimidoyl)phenyl)-3-(1-fluorocyclopropyl)-4-(trifluoromethyl)-1H-pyrazole-5-carboxamide] | ≤ 100
CC1(Cn2nc(C(C)(C)C)c(C(F)(F)F)c2C(=O)Nc2ccnc(S(C)(=N)=O)c2)CC(F)(F)C1 (single isomer, unassigned) [Example 143b, 3-(Tert-butyl)-1-((3,3-difluoro-1-methylcyclobutyl)methyl)-N-(2-(S-methylsulfonimidoyl)pyridin-4-yl)-4-(trifluoromethyl)-1H-pyrazole-5-carboxamide] | ≤ 100
C[S@](=N)(=O)c1cc(NC(=O)c2c(C(F)(F)F)c(C3CC3)nn2C[C@@H]2CC23CC3)ccn1 (single isomer, unassigned) [Example 78b, 3-cyclopropyl-N-(2-(S-methylsulfonimidoyl)pyridin-4-yl)-1-(spiro[2.2]pentan-1-ylmethyl)-4-(trifluoromethyl)-1H-pyrazole-5-carboxamide] | ≤ 100
CC1(Cn2nc(C3(F)CC3)c(C(F)(F)F)c2C(=O)Nc2cccc(S(C)(=N)=O)c2)CC(F)(F)C1 (single isomer, unassigned) [Example 109b, 1-((3,3-Difluoro-1-methylcyclobutyl)methyl)-3-(1-fluorocyclopropyl)-N-(3-(S-methylsulfonimidoyl)phenyl)-4-(trifluoromethyl)-1H-pyrazole-5-carboxamide] | ≤ 100
CC1(Cn2nc(C3(F)CC3)c(C(F)(F)F)c2C(=O)Nc2ccc(F)c(S(C)(=N)=O)c2)CC(F)(F)C1 (single isomer, unassigned) [Example 126a, 1-((3,3-Difluoro-1-methylcyclobutyl)methyl)-N-(4-fluoro-3-(S-methylsulfonimidoyl)phenyl)-3-(1-fluorocyclopropyl)-4-(trifluoromethyl)-1H-pyrazole-5-carboxamide] | ≤ 100
CC1(Cn2nc(C(C)(F)F)c(C(F)(F)F)c2C(=O)Nc2ccnc(S(C)(=N)=O)c2)CC(F)(F)C1 (single isomer, unassigned) [Example 75b, 1-((3,3-difluoro-1-methylcyclobutyl)methyl)-3-(1,1-difluoroethyl)-N-(2-(S-methylsulfonimidoyl)pyridin-4-yl)-4-(trifluoromethyl)-1H-pyrazole-5-carboxamide] | ≤ 100
CS(=N)(=O)c1cc(NC(=O)c2c(C(F)(F)F)c(C3CC3)nn2CC23CC(F)(C2)C3)ccn1 (single isomer, unassigned) [Example 25b, 3-cyclopropyl-1-((3-fluorobicyclo[1.1.1]pentan-1-yl)methyl)-N-(2-(S-methylsulfonimidoyl)pyridin-4-yl)-4-(trifluoromethyl)-1H-pyrazole-5-carboxamide] | 100 to 1000
CC1(Cn2nc(C3(F)CC3)c(C(F)(F)F)c2C(=O)Nc2cc(F)cc(S(C)(=N)=O)c2)CC(F)(F)C1 (single isomer, unassigned) [Example 127b, 1-((3,3-Difluoro-1-methylcyclobutyl)methyl)-N-(3-fluoro-5-(S-methylsulfonimidoyl)phenyl)-3-(1-fluorocyclopropyl)-4-(trifluoromethyl)-1H-pyrazole-5-carboxamide] | ≤ 100
